± gives the expanded uncertainty stated by the source.
Experiment: xn = mol fraction of the nth substance listed
Conditions: Liquid, Vibrating tube method

CCCCCCCCCC [decane] + CCCCCCCC
Conditions	mass density [kg/m3]
343.12 K, 23000 kPa, x2 = 0.7736	693.03 ± 0.56
343.12 K, 24000 kPa, x2 = 0.2801	707.17 ± 0.55
343.12 K, 24000 kPa, x2 = 0.5314	700.89 ± 0.56
343.12 K, 24000 kPa, x2 = 0.7736	693.84 ± 0.56
343.12 K, 25000 kPa, x2 = 0.2801	707.92 ± 0.55
343.12 K, 25000 kPa, x2 = 0.5314	701.69 ± 0.56
343.12 K, 25000 kPa, x2 = 0.7736	694.61 ± 0.57
343.13 K, 1000 kPa, x2 = 0.9623	664.48 ± 0.42
343.13 K, 2000 kPa, x2 = 0.9623	665.59 ± 0.43
343.13 K, 3000 kPa, x2 = 0.9623	666.77 ± 0.43
343.13 K, 4000 kPa, x2 = 0.9623	667.86 ± 0.44
343.13 K, 5000 kPa, x2 = 0.9623	668.95 ± 0.44
343.13 K, 6000 kPa, x2 = 0.9623	670.06 ± 0.45
343.13 K, 7000 kPa, x2 = 0.9623	671.17 ± 0.46
343.13 K, 8000 kPa, x2 = 0.9623	672.27 ± 0.46
343.13 K, 9000 kPa, x2 = 0.9623	673.35 ± 0.47
343.13 K, 10000 kPa, x2 = 0.9623	674.41 ± 0.47
343.13 K, 10990 kPa, x2 = 0.9623	675.48 ± 0.48
343.13 K, 12000 kPa, x2 = 0.9623	676.54 ± 0.49
343.13 K, 13000 kPa, x2 = 0.9623	677.56 ± 0.49
343.13 K, 14000 kPa, x2 = 0.9623	678.58 ± 0.5
343.13 K, 15000 kPa, x2 = 0.9623	679.6 ± 0.51
343.13 K, 16000 kPa, x2 = 0.9623	680.56 ± 0.51
343.13 K, 17000 kPa, x2 = 0.9623	681.54 ± 0.52
343.13 K, 18000 kPa, x2 = 0.9623	682.46 ± 0.53
343.13 K, 19000 kPa, x2 = 0.9623	683.41 ± 0.53
343.13 K, 20000 kPa, x2 = 0.9623	684.31 ± 0.54
343.13 K, 21000 kPa, x2 = 0.9623	685.19 ± 0.55
343.13 K, 22000 kPa, x2 = 0.9623	686.05 ± 0.56
343.13 K, 23000 kPa, x2 = 0.9623	686.9 ± 0.56
343.13 K, 24000 kPa, x2 = 0.9623	687.72 ± 0.57
343.13 K, 25000 kPa, x2 = 0.9623	688.5 ± 0.58
353.08 K, 1000 kPa, x2 = 0.9623	656.17 ± 0.42
353.08 K, 2000 kPa, x2 = 0.9623	657.39 ± 0.43
353.08 K, 3000 kPa, x2 = 0.9623	658.62 ± 0.43
353.08 K, 4000 kPa, x2 = 0.9623	659.85 ± 0.44
353.08 K, 5000 kPa, x2 = 0.9623	660.99 ± 0.45
353.08 K, 6000 kPa, x2 = 0.9623	662.16 ± 0.45
353.08 K, 7000 kPa, x2 = 0.9623	663.38 ± 0.46
353.08 K, 8000 kPa, x2 = 0.9623	664.55 ± 0.46
353.08 K, 9000 kPa, x2 = 0.9623	665.71 ± 0.47
353.08 K, 10000 kPa, x2 = 0.9623	666.85 ± 0.48
353.08 K, 10990 kPa, x2 = 0.9623	667.94 ± 0.48
353.08 K, 12000 kPa, x2 = 0.9623	669.1 ± 0.49
353.08 K, 13000 kPa, x2 = 0.9623	670.16 ± 0.5
353.08 K, 14000 kPa, x2 = 0.9623	671.22 ± 0.5
353.08 K, 15000 kPa, x2 = 0.9623	672.32 ± 0.51
353.08 K, 16000 kPa, x2 = 0.9623	673.37 ± 0.52
353.08 K, 17000 kPa, x2 = 0.9623	674.4 ± 0.52
353.08 K, 18000 kPa, x2 = 0.9623	675.38 ± 0.53
353.08 K, 19000 kPa, x2 = 0.9623	676.37 ± 0.54
353.08 K, 20000 kPa, x2 = 0.9623	677.3 ± 0.55
353.08 K, 21000 kPa, x2 = 0.9623	678.26 ± 0.55
353.08 K, 22000 kPa, x2 = 0.9623	679.19 ± 0.56
353.08 K, 23000 kPa, x2 = 0.9623	680.04 ± 0.57
353.08 K, 24000 kPa, x2 = 0.9623	680.91 ± 0.58
353.08 K, 25000 kPa, x2 = 0.9623	681.75 ± 0.58
353.12 K, 1000 kPa, x2 = 0.0616	683.44 ± 0.42
353.12 K, 1000 kPa, x2 = 0.2801	678.06 ± 0.42
353.12 K, 1000 kPa, x2 = 0.5314	670.91 ± 0.42
353.12 K, 1000 kPa, x2 = 0.7736	663 ± 0.42
353.12 K, 2000 kPa, x2 = 0.0616	684.54 ± 0.42
353.12 K, 2000 kPa, x2 = 0.2801	679.14 ± 0.42
353.12 K, 2000 kPa, x2 = 0.5314	672.1 ± 0.42
353.12 K, 2000 kPa, x2 = 0.7736	664.25 ± 0.43
353.12 K, 3000 kPa, x2 = 0.0616	685.62 ± 0.42
353.12 K, 3000 kPa, x2 = 0.2801	680.24 ± 0.43
353.12 K, 3000 kPa, x2 = 0.5314	673.23 ± 0.43
353.12 K, 3000 kPa, x2 = 0.7736	665.41 ± 0.43
353.12 K, 4000 kPa, x2 = 0.0616	686.69 ± 0.43
353.12 K, 4000 kPa, x2 = 0.2801	681.31 ± 0.43
353.12 K, 4000 kPa, x2 = 0.5314	674.37 ± 0.43
353.12 K, 4000 kPa, x2 = 0.7736	666.6 ± 0.44
353.12 K, 5000 kPa, x2 = 0.0616	687.76 ± 0.43
353.12 K, 5000 kPa, x2 = 0.2801	682.4 ± 0.44
353.12 K, 5000 kPa, x2 = 0.5314	675.52 ± 0.44
353.12 K, 5000 kPa, x2 = 0.7736	667.77 ± 0.44
353.12 K, 6000 kPa, x2 = 0.0616	688.82 ± 0.44
353.12 K, 6000 kPa, x2 = 0.2801	683.48 ± 0.44
353.12 K, 6000 kPa, x2 = 0.5314	676.65 ± 0.44
353.12 K, 6000 kPa, x2 = 0.7736	668.95 ± 0.45
353.12 K, 7000 kPa, x2 = 0.0616	689.85 ± 0.44
353.12 K, 7000 kPa, x2 = 0.2801	684.52 ± 0.45
353.12 K, 7000 kPa, x2 = 0.5314	677.77 ± 0.45
353.12 K, 7000 kPa, x2 = 0.7736	670.08 ± 0.45
353.12 K, 8000 kPa, x2 = 0.0616	690.88 ± 0.45
353.12 K, 8000 kPa, x2 = 0.2801	685.57 ± 0.45
353.12 K, 8000 kPa, x2 = 0.5314	678.86 ± 0.46
353.12 K, 8000 kPa, x2 = 0.7736	671.21 ± 0.46
353.12 K, 9000 kPa, x2 = 0.0616	691.9 ± 0.45
353.12 K, 9000 kPa, x2 = 0.2801	686.58 ± 0.46
353.12 K, 9000 kPa, x2 = 0.5314	679.93 ± 0.46
353.12 K, 9000 kPa, x2 = 0.7736	672.31 ± 0.47
353.12 K, 10000 kPa, x2 = 0.0616	692.88 ± 0.46

From the NIST ThermoML archive (doi:10.1016/j.jct.2011.08.016)
